Where “and” joins values, the source holds several entries; their conditions need not be identical. Identical values can stand only once. Positions of bridges follow the written chain, without caps; N, C: chain ends. Residues, ends and D or L forms follow the SMILES beside them. No end group written: not given here.
Experiments:
EphA4 Fc = assay: Phage binding assay (phage-displayed peptide on EphA4 Fc); parameters: species or system mouse; conditions: 4 μg/ml EphA4 Fc coating, room temperature, 2 h, HRP-anti-M13, ABTS, 405 nm, versus BSA control
Protocol: A pre-made library consisting of a disulfide-constrained nonapeptide (Ph.D.-C7C) library (New England Biolabs, Beverly, MA) was used for panning on EphA4. Recombinant mouse EphA4 Fc Chimera protein (R&D Systems, Minneapolis, MN) was incubated overnight at 4°C in 96-well ELISA plate wells at concentrations of 10 μg/ml in coating buffer (0.1 M NaHCO3). Wells were blocked for 1 h with blocking buffer (0.1 M NaHCO3, 5 mg/ml BSA, 0.02%NaN3), and rinsed with TBST (0.1% Tween20 in TBS). In round 1 of panning, 5×10^10 plaque-forming units (PFUs) of the phage library in 100 μl TBST were incubated for 1h at room temperature in EphA4 receptor-coated wells. After washing, the remaining bound phage were eluted with 100 μl of 0.2 M glycine-HCl (pH 2.2), and then neutralized by 15 μl 1M Tris-HCl (pH9.1). The entire eluate was used to infect early-log phase ER2738 host bacteria and amplified (4.5 h, 37 °C). The phage were concentrated and stored according to the manufacturer’s recommendations. In rounds 2, 3, and 4, we added 4.9×10^10, 1.81×10^11, 1.95×10^11 PFUs of the amplified phage pool from the previous round, respectively, to an EphA4 Fc-coated well and a BSA coated well. The phages were panned as described for round 1, except eluted phages were tittered prior to amplification to assess enrichment.
Phages binding to EphA4 receptor-coated plates were quantified using an anti-phage antibody conjugated to horseradish peroxidase (M13 phage detection kit, Amersham Pharmacia Biotech, Piscataway, NJ) with 2,2-azino-bis(3-ethylbenzthiazoline-6-sulfonic acid) as substrate. A 50 μl of 4 μg/ml EphA4 Fc or 5 mg/ml BSA (as a negative control) in coating buffer (0.1 M NaHCO3) was incubated overnight at 4°C in 96-well ELISA plate wells. Wells were blocked for 30 minutes with blocking buffer, and rinsed with TBST. A 50 μl of amplified phage was added to each well and incubated at room temperature for 2 h. […] Absorbance of each well was read at 405 nm with a Synergy 2 reader (BioTek, Synergy 2). […]

[1] = molecular target: T1, EphA4 Fc Chimera protein / ephrinA5 (Mus musculus, UniProt Q03137); assay: ELISA-based binding assay: inhibition of ephrinA5 AP binding to immobilized EphA4 Fc; type: biochemical
T1 construct: using the immobilized EphA4 extracellular domain fused to human Fc; purchased R&D Systems, Minneapolis, MN
T1 sequence (Q03137 20-547 limits assumed, change not shown): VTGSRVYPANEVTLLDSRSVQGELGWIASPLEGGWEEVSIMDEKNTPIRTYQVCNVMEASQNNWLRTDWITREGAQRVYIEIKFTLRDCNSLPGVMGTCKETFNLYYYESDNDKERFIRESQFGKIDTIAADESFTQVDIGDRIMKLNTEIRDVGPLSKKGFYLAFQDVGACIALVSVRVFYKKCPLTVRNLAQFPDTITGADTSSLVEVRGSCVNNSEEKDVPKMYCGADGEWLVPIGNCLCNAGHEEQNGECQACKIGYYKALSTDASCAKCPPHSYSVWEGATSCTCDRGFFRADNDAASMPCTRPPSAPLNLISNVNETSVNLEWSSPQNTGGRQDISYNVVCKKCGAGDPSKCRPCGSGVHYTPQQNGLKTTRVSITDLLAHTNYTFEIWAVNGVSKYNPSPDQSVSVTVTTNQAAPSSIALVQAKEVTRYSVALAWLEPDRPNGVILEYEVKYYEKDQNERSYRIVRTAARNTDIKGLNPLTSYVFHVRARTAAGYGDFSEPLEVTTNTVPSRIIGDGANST
Protocol: For Eph receptor binding studies, 50 μl of ephrin A5 (5 μg/ml, kindly provided by Dr. Elena B. Pasquale, Sanford-Burnham Medical Research Institute) was coated onto each well on a 96-well ELISA plate (Corning, #3690) overnight at 4°C. The wells were blocked with 100 μl blocking buffer (Pierce, #37543) for 1 h and then rinsed with PBS. A 1 μg of recombinant mouse EphA4 Fc Chimera protein (R&D Systems, Minneapolis, MN) in EIA buffer (1% BSA, 0.05% Tween 20 in TBS) was then incubated in each well for 1.5 h at room temperature. The EphA4 Fc-coated wells were rinsed with PBS buffer and incubated for 1.5 h with different peptide concentrations and same amount of alkaline phosphatase (AP)-tagged ephrin A5 in a total volume of 50 μl. After the unbound peptide and ephrin had been washed away, bound ephrin-A5 AP was quantified using p-nitrophenylphosphate as a substrate by a Synergy2 reader (BioTek, Winooski, VT) with wavelength of 405 nm. Data were fitted using nonlinear regression. IC50 values were calculated using Prism (GraphPad Software Inc.).

HUVEC = HUVEC viability assay (CellTiter-Blue); type: cell-based, human; conditions: for cytotoxic effects on HUVECs: 48 h, 37°C, CellTiter-Blue, fluorescence 540Ex/600Em, at least three independent experiments
Protocol: The cytotoxic effects of the TYY cyclic peptide were measured at different concentrations by plating 1×10^4 HUVEC cells (ATCC) per well in 96-well plates and determining cell survival. Cells were treated with various concentrations of TYY (10 μM and 20 μM) and incubated in an incubator with a 5% CO2 and 95% humidity atmosphere at 37°C for 24 h and 48 h. After incubation, cell viability was measured using a CellTiter-Blue assay kit (Promega) according to the manufacturer’s instructions. Briefly, 20 μl of CellTiter-Blue reagent was added to 100 μl of culture media and cells were incubated for 2-4 hours at 37°C. Afterward, fluorescence at 540Ex/600Em was measured using a fluorescence plate reader (BioTek, Synergy 2). Each experimental data point was generated from at least three independent experiments.
Figure 3 Effects of the TYY cyclic peptide on viability of HUVEC cells. The HUVECs were treated with the indicated concentrations of the TYY peptide. A 0.1% DMSO control was used because the highest concentration of the DMSO vehicle in the TYY solutions was 0.1%. The cell viability was determined by CellTiter-Blue assays 24 h and 48 h after addition of TYY. Each experimental data point was generated from at least three independent experiments.

EphA4 = conditions: ref [25]; cited from earlier work
Source text: A promising strategy for anti-angiogenic cancer therapies is to antagonize Eph-ephrin interactions by interfering with the Eph receptor/ephrin system. Several different synthetic peptides and small molecules have been studied for this purpose; the advantage of these artificial ligands is that they can show a much higher selectivity compared to the physiological ephrin ligands.

For “CSWYWPLPC (disulfide 1-9) [disulfide-constrained cyclic nonapeptide c[…] from M13 phage display library]”, the “binding of phage clones to EphA4 Fc” value (EphA4 Fc) was “significant binding”, the “inhibition of ephrin A5 binding to EphA4” value ([1]; 50 μM peptide, ELISA, 1.5 h) was 40% and the “inhibition of EphA4 binding with AP-tagged ephrinA5 (in words)” value ([1]; dose dependence) was “dose-dependent inhibition”.
With “CLMTSQFRC (disulfide 1-9) [cyclic nonapeptide c[…] from M13 phage display library, tested on phage]” the “binding of phage clones to EphA4 Fc” value (EphA4 Fc) was “significant binding”.
For `CC(C)C[C@@H]1NC(=O)[C@@H]2CCCN2C(=O)[C@H](Cc2c[nH]c3ccccc23)NC(=O)[C@H](Cc2ccc(O)cc2)NC(=O)[C@H](Cc2ccc(O)cc2)NC(=O)[C@H]([C@@H](C)O)NC(=O)[C@@H](N)CSSC[C@@H](C(N)=O)NC(=O)[C@@H]2CCCN2C1=O` [TYY] (H-CTYYWPLPC-NH2; disulfide 1-9), the “cytotoxic effects on HUVECs” value (HUVEC; 10 μM) was “no cytotoxic effects on HUVECs”, the “cytotoxic effects on HUVECs” value (HUVEC; 20 μM) was “no cytotoxic effects on HUVECs” and the “cytotoxic effects in HUVECs” value (HUVEC; concentrations up to 20 μM) was “no cytotoxic effects in the HUVECs”. The “inhibition of EphA4-ephrinA5 binding” value ([1]; 100 nM peptide, ELISA, 1.5 h, three independent measurements) was 24.8%, the “inhibition of EphA4-ephrinA5 binding” value ([1]; 100 μM peptide, ELISA, 1.5 h, three independent measurements) was 94.06% and 94% and the IC50 ([1]; ELISA, ephrin A5-coated plate, EphA4 Fc, AP-tagged ephrin A5, 1.5 h incubation, p-nitrophenylphosphate, 405 nm, nonlinear regression (Prism), three independent measurements) was 11.7 µM.
For “KYLPYWPVLSSL [linear 12-residue KYL peptide (…), positive control, reference compound]”, the “inhibition of EphA4-ephrinA5 binding” value ([1]; 25 μM, positive control, ELISA, 1.5 h, three independent measurements) is listed as 92% and the “artificial ligand of EphA4” value (EphA4) is listed as “act as artificial ligands”.
With “CWPIKVGWC (disulfide 1-9) [cyclic nonapeptide c[…] from M13 phage display library, tested on phage]” the “binding of phage clones to EphA4 Fc” value (EphA4 Fc) was “significant binding”.

Source: publication PMC3827205, “Discovery and Characterization of a Novel Cyclic Peptide That Effectively Inhibits Ephrin Binding to the EphA4 Receptor and Displays Anti-Angiogenesis Activity” (PLoS ONE, 2013)
